According to patent US20250237650A1 (priority 2021, published 2025):

How the values were obtained:
SARS-CoV-2 spike [1] = type: binding; settings: for Kd: pH 7.4
SARS-CoV-2 spike [2] = tested on: SARS-CoV-2 spike
[3] = target: trimeric Env (Group M; Clade C); assay: BLI of HS to trimeric Env; parameters: species or system HIV-1; settings: read-out: estimated binding affinity
[4] = tested on: variants of Env (trimeric gp140; Clade C, B, A); assay: BLI of HS to variants of trimeric Env; type: binding, HIV-1
[5] = target: Env (monomeric gp140; Clade CRF07_BC); assay: BLI of HS/HEP to monomeric Env; parameters: species or system HIV-1; settings: steady-state analysis of BLI data; read-out: Estimated binding affinity (KD)

Row | Substance | Kd (SARS-CoV-2 spike [1]) | LFSA signal intensity of capture probes (SARS-CoV-2 spike [2]) | Kd [5] | further results
1 | chondroitin sulfate [CS25] | 17.9 nM | – | – | –
2 | heparan sulfate [HS15] | – | highest signal intensity | – | –
3 | heparan sulfate [HS] | – | – | 142 nM | Kd [3]: 28 nM; Binding affinity of HS to all the subtypes [4]: in the nanomolar range
4 | heparin [HEP15, reference compound] | 215 nM | – | – | –
5 | heparin [HEP27, reference compound] | – | lower signal intensity | – | –
6 | heparin [reference compound] | – | – | 209 nM | HEP binding affinity to spike as ionic strength increased (SARS-CoV-2 spike [1]): dramatically decreased
